{"source": "patent US20240011070A1", "about": "“METHODS AND COMPOSITIONS FOR PROTEASE REPORTER ASSAYS AND MODULATORS” (712 North Inc., priority 2020, published 2024)", "key": {"[1]": {"biological_target": "T1, OMA1 protease (Homo sapiens, UniProt Q96E52)", "T1 sequence (Q96E52 144-524)": "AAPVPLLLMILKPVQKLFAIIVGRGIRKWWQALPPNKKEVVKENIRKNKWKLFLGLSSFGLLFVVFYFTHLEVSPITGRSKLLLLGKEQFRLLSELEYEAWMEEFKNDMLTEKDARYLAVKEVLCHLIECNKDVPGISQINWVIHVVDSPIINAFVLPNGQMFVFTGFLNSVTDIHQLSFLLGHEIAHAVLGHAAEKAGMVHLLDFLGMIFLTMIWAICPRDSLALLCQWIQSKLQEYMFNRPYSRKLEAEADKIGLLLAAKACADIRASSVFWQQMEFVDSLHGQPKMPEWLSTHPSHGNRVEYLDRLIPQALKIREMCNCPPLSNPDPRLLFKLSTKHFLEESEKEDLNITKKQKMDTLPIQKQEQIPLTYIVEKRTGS", "test": "Rep #01 luciferase reporter assay in Hek293T cells", "settings": "for bioluminescence of reporter #01 (mitochondrial toxicity): Hek293T cells exposed 30 minutes", "from_the_text": "Example 1 provides a nonlimiting example of generation and use of a reporter of present invention and illustrates its function. To this end, generation and use of reporter gene #01 (SEQ ID NO: 01) and reporter gene #15 (SEQ ID NO: 15) are described and their function compared to each other. The general design of a reporter of present invention is illustrated in FIG. 1A and its working principle in FIG. 1B. A reporter in general, and reporter gene #01 and reporter gene #15 in particular, can be generated as follows. DNA sequences of a reporter may be codon-optimized in silico or by any other way for expression in a suitable host. DNA sequences of reporter genes #01 and #15 were codon-optimized for expression in humans (SEQ ID NO: 02 and SEQ ID NO: 16, respectively). The (optimized) sequences were synthesized and cloned into a pcDNA3.1 expression vector under the control of a CMV promotor (see FIG. 1 for an illustration of such vector). Of course, an expression system and a host should match for best results. The host in this example were Hek293T cells, which were maintained under standard culture conditions in DMEM with 10% Fetal Bovine Serum and 1% Pen/Strep. For an experiment, Hek293T cells were seeded in opaque white tissue-culture treated 96-well plates at 80% confluency and transfected with vectors carrying reporter gene #01 and reporter gene #15 and 24 hours later incubated for 30 minutes at 37° C. in OptiMEM or in OptiMEM with 10 μM CCCP. After 30 minutes, the OptiMEM cell-culture media was replaced with luciferase substrate (furimazine, Promega) diluted 1:100 in OptiMEM, and bioluminescence was measured with a Fluoroskan Ascent FL (Thermo Scientific) using a 517 nm single-pass filter and 200 milliseconds integration time. […]\nExample 5 illustrates how mitochondrial toxicity can be measured with reporter and assays of present invention. […] Hek293T cells expressing reporter #01 and #15 were exposed to CCCP, tipranavir and sorafenib (in OptiMEM) for 30 minutes before the medium was replaced with furimazine (1:100), and bioluminescence measured."}, "[2]": {"tested_on": "L-OPA1", "test": "OPA1 hydrolysis in Hek293T cells by Western blot", "assay_type": "cell-based", "settings": "30 minutes", "from_the_text": "(§1) OPA1 hydrolysis can be monitored by Western blotting. […] The predicted size of full-length Luke-S1 is 31.8 kDa."}, "[3]": {"biological_target": "T1, OMA1 protease", "test": "Reporter hydrolysis in Hek293T reporter cells by Western blot", "assay_type": "cell-based", "set-up": "The OMA 1 enzyme is dormant under physiological cell culture conditions in these cells; endogenous in cells", "settings": "for Luke-S1 reporter cleavage in Western blots / Luke-TEV reporter cleavage in Western blots: 3 μM CCCP or 100 nM valinomycin", "description": "For this example, transfected cells were selected by puromycin. […] […] If reporter #15 indeed is cleaved by OMA1, then phenanthroline should prevent this at least to a certain extend by inhibiting OMA1 and accordingly preserving the signal. Hek293T cells were transfected with reporter gene #15 as described in the preceding example. After 24 hours, the transfected cells were incubated with 500 μM phenanthroline in OptiMEM. After 1 hour of pretreatment, CCCP in OptiMEM/phenanthroline was added to a final concentration of 10 μM CCCP and cells incubated for another 30 minutes at 37° C. After 30 minutes, the medium was replaced with furimazine (1:100 in OptiMEM), and bioluminescence measured as described in Example 1.\nas §1"}, "[4]": {"biological_target": "T1, OMA1 protease", "test": "cell-based", "from_the_text": "Example 1 provides a nonlimiting example of generation and use of a reporter of present invention and illustrates its function. To this end, generation and use of reporter gene #01 (SEQ ID NO: 01) and reporter gene #15 (SEQ ID NO: 15) are described and their function compared to each other. The general design of a reporter of present invention is illustrated in FIG. 1A and its working principle in FIG. 1B. A reporter in general, and reporter gene #01 and reporter gene #15 in particular, can be generated as follows. DNA sequences of a reporter may be codon-optimized in silico or by any other way for expression in a suitable host. DNA sequences of reporter genes #01 and #15 were codon-optimized for expression in humans (SEQ ID NO: 02 and SEQ ID NO: 16, respectively). The (optimized) sequences were synthesized and cloned into a pcDNA3.1 expression vector under the control of a CMV promotor (see FIG. 1 for an illustration of such vector). Of course, an expression system and a host should match for best results. The host in this example were Hek293T cells, which were maintained under standard culture conditions in DMEM with 10% Fetal Bovine Serum and 1% Pen/Strep. For an experiment, Hek293T cells were seeded in opaque white tissue-culture treated 96-well plates at 80% confluency and transfected with vectors carrying reporter gene #01 and reporter gene #15 and 24 hours later incubated for 30 minutes at 37° C. in OptiMEM or in OptiMEM with 10 μM CCCP. After 30 minutes, the OptiMEM cell-culture media was replaced with luciferase substrate (furimazine, Promega) diluted 1:100 in OptiMEM, and bioluminescence was measured with a Fluoroskan Ascent FL (Thermo Scientific) using a 517 nm single-pass filter and 200 milliseconds integration time. […] Reporter #01 comprises a large part of OPA1's amino-terminus as mitochondrial targeting sequence, which is cleaved by the mitochondrial processing peptidase upon mitochondrial import (see Example 2). Reporter #15 was initially envisioned as a control for reporter #01. Reporter #15 therefore lacks the first 66 amino acids of reporter #01 believed to be essential for mitochondrial import.\nExample 5 illustrates how mitochondrial toxicity can be measured with reporter and assays of present invention. The OMA1-OPA1 pathway basically serves as a “canary-in-the-coalmine” for a mitochondrial deterioration. […] Hek293T cells expressing reporter #01 and #15 were exposed to CCCP, tipranavir and sorafenib (in OptiMEM) for 30 minutes before the medium was replaced with furimazine (1:100), and bioluminescence measured."}, "[5]": {"biological_target": "T1, OMA1 protease", "test": "Rep #15 / Luke-S1 assay for OMA1 inhibitors (preincubation with test compound, then OMA1 activator)", "assay_type": "cell-based", "set-up": "The OMA 1 enzyme is dormant under physiological cell culture conditions in these cells; endogenous in cells", "settings": "500 μM phenanthroline 1 hour, then 10 μM CCCP 30 minutes", "description": "Example 2 refers to FIG. 4 and illustrates hydrolysis of reporter #01 and reporter #15. For this example, transfected cells were selected by puromycin. Reporter cells were exposed for 30 minutes to 10 μM CCCP before being harvested in RIPA buffer and subjected to 12% SDS-PAGE followed by Western-blotting. […] Full-length reporter #01 has a predicted size of 39.6 kDa but was not detected in Western blots. […] At the same time, reporter #15 is not processed upon import, but migrated at its expected size of 31.9 kDa. (Example 7 establishes mitochondrial import by showing co-migration of reporter #15 with OPA1 and OMA1 in mitochondria-enriched fractions.) Reporter #15 appears to be more abundant and stable, which may explain its better performance. […] This provides additional evidence that reporter #15 is indeed localized in mitochondria where it is recognized and hydrolyzed by OMA1. […] Therefore, phenanthroline was used as a positive control in the reporter assay. If reporter #15 indeed is cleaved by OMA1, then phenanthroline should prevent this at least to a certain extend by inhibiting OMA1 and accordingly preserving the signal. Hek293T cells were transfected with reporter gene #15 as described in the preceding example. […] After 30 minutes, the medium was replaced with furimazine (1:100 in OptiMEM), and bioluminescence measured as described in Example 1. […]"}, "[6]": {"biological_target": "T2, NanoLuc luciferase (Oplophorus gracilirostris, UniProt Q9GV45, A31E/A60N/A81I/F95D/I117V/K70R/L54V/L99Q/M102K/N193R/P142E/Q151K/Q38R/Q45L/V71I/Y165I)", "T2 construct": "expressed in transfected cells; host or cells: 'Luke' cells", "T2 sequence (Q9GV45 with tags, fused parts or gaps with the stated changes)": "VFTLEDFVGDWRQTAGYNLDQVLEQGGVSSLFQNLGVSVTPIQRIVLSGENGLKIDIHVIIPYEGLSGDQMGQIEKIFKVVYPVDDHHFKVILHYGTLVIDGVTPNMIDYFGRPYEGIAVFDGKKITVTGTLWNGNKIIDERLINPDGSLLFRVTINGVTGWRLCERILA", "test": "Luke (native NanoLuc) control cell assay in Hek293T cells", "assay_type": "cell-based", "text": "Example 6 refers to FIG. 11 and introduces the Luke-S1 reporter cell line, which is based on a modified NanoLuc complementation system (Dixon, et al. ACS Chem Biol (2016) 11(2): 400-8). […] Luke-S1 is targeted to the mitochondrial inner membrane by an 86 amino acid portion of OPA1's c-terminus with the protein sequence SEQ ID NO: 27 and the DNA sequence SEQ ID NO:28. A reporter in which the S1 site was replaced by a TEV cleavage site (referred to as ‘Luke-TEV’) and the native NanoLuc enzyme (referred to as ‘Luke’) served as controls."}, "[7]": {"biological_target": "OMA1 protease (Mus musculus, UniProt Q9D8H7)", "sequence (Q9D8H7 140-521)": "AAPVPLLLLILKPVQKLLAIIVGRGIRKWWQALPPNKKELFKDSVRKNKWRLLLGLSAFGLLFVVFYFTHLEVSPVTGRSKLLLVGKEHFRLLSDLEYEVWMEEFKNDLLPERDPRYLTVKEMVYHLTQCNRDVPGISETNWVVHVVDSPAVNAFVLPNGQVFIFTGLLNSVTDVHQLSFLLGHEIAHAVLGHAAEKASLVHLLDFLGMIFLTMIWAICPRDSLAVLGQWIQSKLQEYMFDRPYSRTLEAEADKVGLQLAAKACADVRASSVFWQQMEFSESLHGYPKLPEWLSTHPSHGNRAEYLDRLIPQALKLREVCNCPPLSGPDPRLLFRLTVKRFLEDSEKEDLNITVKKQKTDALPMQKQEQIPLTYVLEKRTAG", "settings": "Neuro2A cells", "from_the_text": "In this example, the S1-cleavage site of reporter #15 was replaced with a TEV-cleavage site (see also Example 6). Neuro2A cells were transfected with reporter #15-S1 and reporter #15-TEV and selected by puromycin. […] FIG. 7 provides an overview of the arrangement of elements of different reporter genes, which comprise inter alia the amino acid sequences of SEQ ID NO: 01 (Rep #01), SEQ ID NO: 03 (Rep #04), SEQ ID NO: 09 (Rep #08), SEQ ID NO: 13 (Rep #10), and SEQ ID NO: 15 (Rep #15)."}, "[8]": {"biological_target": "T1, OMA1 protease", "test": "Luke-TEV (TEV site instead of S1) reporter assay in Hek293T cells", "assay_type": "cell-based", "set-up": "The OMA 1 enzyme is dormant under physiological cell culture conditions in these cells; endogenous in cells"}}, "note": "“Also recorded” adds a separate entry of the source. Where two headings read alike, the source gives them in different places.", "data": [{"molecule": "N#CC(C#N)=NNc1cccc(Cl)c1", "note": "[CCCP, carbonyl cyanide m-chlorophenyl hydrazone]", "values": [{"measurement": "bioluminescence signal of reporter #01", "setting": "[1]; 10 μM CCCP, 30 minutes", "result": "significantly reduced"}, {"measurement": "bioluminescence of reporter #01 (mitochondrial toxicity)", "setting": "[1]", "result": "significantly reduced bioluminescence"}, {"measurement": "OPA1 hydrolysis in Western blots", "setting": "[2]; 3 μM CCCP", "result": "complete disappearance of L-OPA1 isoforms; also recorded: complete L-OPA1 proteolysis"}, {"measurement": "Luke-S1 reporter cleavage in Western blots", "setting": "[3]", "result": "induced cleavage of the Luke-S1 reporter"}, {"measurement": "Luke-TEV reporter cleavage in Western blots", "setting": "[3]", "result": "cleaved"}, {"measurement": "processing of reporter #01 in Western blot", "setting": "[3]; 10 μM CCCP, 30 minutes", "result": "led to processing"}, {"measurement": "processing of reporter #15 in Western blot", "setting": "[3]; 10 μM CCCP, 30 minutes", "result": "led to processing"}]}, {"molecule": "COC1=CC(=O)O[C@@H](/C=C/c2ccccc2)C1", "note": "[kavain, Kavain]", "values": [{"measurement": "EC50", "setting": "[4]", "result": 14, "unit": "µM"}]}, {"molecule": "c1cnc2c(c1)ccc1cccnc12", "note": "[phenanthroline]", "values": [{"measurement": "bioluminescence signal of reporter #15 after pretreatment", "setting": "[5]", "result": "prevented reporter #15 deactivation and maintained the bioluminescence signal; also recorded: largely preserved"}]}, {"molecule": "CCC[C@@]1(CCc2ccccc2)CC(O)=C([C@H](CC)c2cccc(NS(=O)(=O)c3ccc(C(F)(F)F)cn3)c2)C(=O)O1", "note": "[tipranavir]", "values": [{"measurement": "EC50", "setting": "[4]", "result": 9, "unit": "µM"}, {"measurement": "bioluminescence of reporter #01 (mitochondrial toxicity)", "setting": "[1]", "result": "deactivated; also recorded: significantly reduced bioluminescence"}]}, {"molecule": "CC(C)[C@@H]1NC(=O)[C@H](C)OC(=O)[C@@H](C(C)C)NC(=O)[C@@H](C(C)C)OC(=O)[C@H](C(C)C)NC(=O)[C@H](C)OC(=O)[C@@H](C(C)C)NC(=O)[C@@H](C(C)C)OC(=O)[C@H](C(C)C)NC(=O)[C@H](C)OC(=O)[C@@H](C(C)C)NC(=O)[C@@H](C(C)C)OC1=O", "note": "[valinomycin]", "values": [{"measurement": "EC50", "setting": "[4]", "result": 0.0176, "unit": "µM"}, {"measurement": "Luke-S1 signal, cells transfected with OMA1 siRNA", "setting": "[4]; 100 nM valinomycin, 30 minutes", "result": "no significant signal reduction"}, {"measurement": "Luke-S1 signal, cells transfected with control siRNA", "setting": "[4]; 100 nM valinomycin, 30 minutes", "result": "significant signal reduction"}, {"measurement": "real-time bioluminescence versus cells without valinomycin", "setting": "[4]; Luke-S1, 100 nM valinomycin added with luciferase substrate, 25 minutes", "result": "marked signal reduction from the start of the measurement"}, {"measurement": "signal intensity normalized to untreated cells", "setting": "[4]; valinomycin treated controls of the cancer drug screen, untreated = 100%", "result": 18.5, "unit": "%"}, {"measurement": "real-time bioluminescence versus cells without valinomycin", "setting": "[6]; Luke, 100 nM valinomycin added with luciferase substrate, after 10 minutes", "result": "no notable differences"}, {"measurement": "effect on Luke bioluminescence", "setting": "[6]; dose-response, 30 minutes", "result": "no effects"}, {"measurement": "half maximal effective concentration (EC50)", "setting": "[7]; reporter #15-S1, 30 minutes", "result": "low nanomolar range"}, {"measurement": "half maximal effective concentration (EC50)", "setting": "[7]; reporter #15-TEV, 30 minutes", "result": "low nanomolar range"}, {"measurement": "OPA1 hydrolysis in Western blots", "setting": "[2]; 0.1 μM (100 nM) valinomycin", "result": "sufficed for OPA1 cleavage; also recorded: complete L-OPA1 proteolysis"}, {"measurement": "real-time bioluminescence versus cells without valinomycin", "setting": "[8]; Luke-TEV, 100 nM valinomycin added with luciferase substrate", "result": "much smaller difference"}, {"measurement": "effect on Luke-TEV signal", "setting": "[8]; dose-response, 30 minutes", "result": "only a minor signal reduction"}, {"measurement": "Luke-S1 reporter cleavage in Western blots", "setting": "[3]", "result": "induced cleavage of the Luke-S1 reporter"}, {"measurement": "Luke-TEV reporter cleavage in Western blots", "setting": "[3]", "result": "cleaved"}]}]}
